In patent publication US5789431A, “Naphthoquinone antitumor compound and method” (The University of North Carolina at Chapel Hill, priority 1996, dated 1998):

Key:
[1] = test system: MALME-3M; test: in vitro melanoma cell growth inhibition (NCI screen)
[2] = test system: BT-549; test: in vitro breast cancer cell growth inhibition (NCI screen)
[3] = test system: MCF-7; test: as above
[4] = test system: COLO-205; test: in vitro colon cancer cell growth inhibition (NCI screen)
[5] = test system: HL-60(TB); test: in vitro leukemia cell growth inhibition (NCI screen)
[6] = test system: MDA-MB-435; test: in vitro breast cancer cell growth inhibition (NCI screen)
[7] = test system: MOLT-4; test: in vitro leukemia cell growth inhibition (NCI screen)
[8] = test system: UACC-257; test: in vitro melanoma cell growth inhibition (NCI screen)
[9] = test system: MDA-N; test: in vitro breast cancer cell growth inhibition (NCI screen)
[10] = test system: UACC-62; test: in vitro melanoma cell growth inhibition (NCI screen)
[11] = test system: SF-539; test: in vitro CNS cancer cell growth inhibition (NCI screen)
[12] = test system: CCRF-CEM; test: in vitro leukemia cell growth inhibition (NCI screen)
[13] = test system: OVCAR-3; test: in vitro ovarian cancer cell growth inhibition (NCI screen)
[14] = test system: MCF7/ADR-RES; test: in vitro breast cancer cell growth inhibition (NCI screen)
[15] = test system: HCC-2998; test: in vitro colon cancer cell growth inhibition (NCI screen)
[16] = test system: M14; test: in vitro melanoma cell growth inhibition (NCI screen)
[17] = test system: NCI-H522; test: in vitro non-small cell lung cancer cell growth inhibition (NCI screen)
[18] = test system: SW 620; test: in vitro colon cancer cell growth inhibition (NCI screen)
[19] = test system: UO-31; test: in vitro renal cancer cell growth inhibition (NCI screen)
[20] = test system: HOP-92; test: in vitro non-small cell lung cancer cell growth inhibition (NCI screen)
[21] = test system: NCI-H23; test: as above
[22] = test system: RXF-393; test: in vitro renal cancer cell growth inhibition (NCI screen)
[23] = test system: TK-10; test: as above
[24] = test system: HCT-116; test: in vitro colon cancer cell growth inhibition (NCI screen)
[25] = test system: MDA-MB-231/ATCC; test: in vitro breast cancer cell growth inhibition (NCI screen)
[26] = test system: NCI-H460; test: in vitro non-small cell lung cancer cell growth inhibition (NCI screen)
[27] = test system: SK-MEL-2; test: in vitro melanoma cell growth inhibition (NCI screen)
[28] = test system: SK-MEL-5; test: as above
[29] = test system: LOX1MVI; test: as above
[30] = test system: SR; test: in vitro leukemia cell growth inhibition (NCI screen)
[31] = test system: HT 29; test: in vitro colon cancer cell growth inhibition (NCI screen)
[32] = test system: KM 20L2; test: as above
[33] = test system: human tumor cell lines; format: cell-based
[34] = test system: HCT-15; test: in vitro colon cancer cell growth inhibition (NCI screen)
[35] = test system: M19-MEL; test: in vitro melanoma cell growth inhibition (NCI screen)
[36] = test system: OVCAR-4; test: in vitro ovarian cancer cell growth inhibition (NCI screen); settings: OVACR-4
[37] = test system: SK-OV-3; test: as above
[38] = test system: K-562; test: in vitro leukemia cell growth inhibition (NCI screen)
[39] = test system: T-47D; test: in vitro breast cancer cell growth inhibition (NCI screen)
[40] = test system: RPMI-8226; test: in vitro leukemia cell growth inhibition (NCI screen)
[41] = test system: IGROV1; test: in vitro ovarian cancer cell growth inhibition (NCI screen)
[42] = test system: PC-3; test: in vitro prostate cancer cell growth inhibition (NCI screen)
[43] = test system: OVCAR-8; test: in vitro ovarian cancer cell growth inhibition (NCI screen)

| Compound | cytotoxicity log GI50 [1] [M] | cytotoxicity log GI50 [4] [M] | cytotoxicity log GI50 [5] [M] | cytotoxicity log GI50 [6] [M] | cytotoxicity log GI50 [7] [M] | cytotoxicity log GI50 [8] [M] | cytotoxicity log GI50 [9] [M] | cytotoxicity log GI50 [10] [M] | cytotoxicity log GI50 [12] [M] | cytotoxicity log GI50 [13] [M] | cytotoxicity log GI50 [14] [M] | cytotoxicity log GI50 [15] [M] | cytotoxicity log GI50 [16] [M] | cytotoxicity log GI50 [17] [M] | cytotoxicity log GI50 [18] [M] | cytotoxicity log GI50 [21] [M] | cytotoxicity log GI50 [22] [M] | cytotoxicity log GI50 [24] [M] | cytotoxicity log GI50 [28] [M] | cytotoxicity log GI50 [31] [M] | further results |
| --- | --- | --- | --- | --- | --- | --- | --- | --- | --- | --- | --- | --- | --- | --- | --- | --- | --- | --- | --- | --- | --- |
| COC(=O)CCCC(=O)NC1=C(NCc2ccccc2)C(=O)c2ccccc2C1=O [Compound 51] | -4.81 | -4.62 | -4.54 | -4.37 | -4.47 | -4.53 | -4.38 | -4.53 | -4.44 | -4.64 | -4.56 | -4.49 | -4.53 | – | – | – | – | – | – | – | cytotoxicity log GI50 [2]: -4.54 M; cytotoxicity log GI50 [3]: -4.52 M; cytotoxicity log GI50 [11]: -4.44 M |
| O=C(O)CCc1nc2c(n1Cc1ccccc1)C(=O)c1ccccc1C2=O [Compound 61] | – | -4.47 | – | -4.72 | – | -4.47 | -4.67 | -4.42 | – | -4.55 | – | – | -4.67 | -4.62 | -4.50 | -4.52 | -4.60 | -4.44 | -4.67 | – | cytotoxicity log GI50 [19]: -4.51 M; cytotoxicity log GI50 [20]: -5.26 M; cytotoxicity log GI50 [23]: -4.47 M; cytotoxicity log GI50 [11]: -4.55 M; cytotoxicity log GI50 [25]: -4.47 M; cytotoxicity log GI50 [26]: -4.42 M; cytotoxicity log GI50 [27]: -4.59 M; cytotoxicity log GI50 [29]: -4.57 M |
| COC(=O)CCC(=O)NC1=C(Nc2ccc(OC)cc2)C(=O)c2ccccc2C1=O [Compound 56] | – | – | – | -5.69 | – | -5.37 | -5.74 | -5.67 | – | -5.48 | – | – | -5.22 | – | – | – | – | – | -5.75 | – | cytotoxicity log GI50 [20]: -5.66 M; cytotoxicity log GI50 [30]: -5.16 M; cytotoxicity log GI50 [25]: -4.63 M; cytotoxicity log GI50 [26]: -5.18 M; cytotoxicity log GI50 [27]: -5.31 M; cytotoxicity log GI50 [29]: -5.41 M |
| Cc1nc2c(n1CCN(C)C)C(=O)c1ccccc1C2=O [Compound 15] | -5.55 | -5.35 | -5.28 | – | – | – | – | -4.92 | – | -5.15 | – | – | -4.93 | -5.27 | – | -4.92 | – | – | -5.13 | -4.98 | cytotoxicity log GI50 [32]: -5.20 M; cytotoxicity log GI50 [30]: -4.93 M; cytotoxicity against tumor cells (in words) ([33]; cancer cell line panel): comparable to those of compounds 6-14; cytotoxicity log GI50 [34]: -4.89 M; cytotoxicity log GI50 [35]: -5.69 M; cytotoxicity log GI50 [26]: -5.01 M; cytotoxicity log GI50 [27]: -4.91 M |
| CCCc1nc2c(n1CC)C(=O)c1ccccc1C2=O [Compound 24] | -4.65 | – | – | -4.76 | -4.77 | -4.74 | -4.70 | -4.59 | -4.61 | -4.49 | -4.58 | -4.51 | – | -4.62 | – | – | – | – | -4.53 | -4.73 | cytotoxicity log GI50 [36]: -4.49 M; cytotoxicity log GI50 [37]: -4.66 M; GI50 ([33]; Homo sapiens, cancer cell panel, general / most cell lines, read-out: logGI50 values in the cancer cell line panel (converted)): ~10 µM; cytotoxicity log GI50 [38]: -4.51 M; cytotoxicity log GI50 [39]: -4.55 M; cytotoxicity log GI50 [34]: -4.55 M; cytotoxicity log GI50 [40]: -4.50 M; cytotoxicity log GI50 [41]: -4.57 M |
| CC(=O)NC1=C(NCCO)C(=O)c2ccccc2C1=O [Compound 40] | -4.89 | – | -4.68 | – | – | – | – | – | – | -4.72 | – | – | – | -4.61 | – | – | – | -4.52 | -4.53 | – | cytotoxicity log GI50 [32]: -4.62 M; cytotoxicity log GI50 [35]: -5.01 M |
| CCNC1=C(NC(=O)c2ccc(OC)cc2)C(=O)c2ccccc2C1=O [Compound 49] | -4.67 | -4.43 | – | -4.77 | -4.44 | -4.71 | -4.43 | -4.40 | – | -4.62 | -4.54 | -4.43 | -4.67 | -4.51 | -4.36 | -4.36 | -4.55 | -4.44 | -4.46 | -4.63 | cytotoxicity log GI50 [36]: -4.46 M; cytotoxicity log GI50 [42]: -4.48 M; cytotoxicity log GI50 [43]: -4.61 M |
| CCNC1=C(NC(=O)c2ccc(F)cc2)C(=O)c2ccccc2C1=O [Compound 48] | -4.72 | -4.58 | – | -4.74 | -4.52 | -4.80 | -4.47 | -4.82 | -4.45 | -4.44 | -4.56 | -4.46 | -4.61 | -4.68 | -4.49 | -4.46 | -4.53 | -4.52 | -4.46 | -4.65 | cytotoxicity log GI50 [3]: -4.52 M; cytotoxicity log GI50 [42]: -4.76 M; cytotoxicity log GI50 [37]: -4.73 M; cytotoxicity log GI50 [43]: -4.49 M; cytotoxicity log GI50 [34]: -4.51 M; cytotoxicity log GI50 [41]: -4.50 M |
